Experimental data from patent US20260285924A1, “PEPTIDE THERAPEUTICS” (priority 2023, published 2026).

Assays:
[1] = system: A-to-I RNA editing reporter (ADAR) in A375; experiment: A-to-I PepTile (REPTILE) screen: A-to-I editing of dsRNA hairpin reporter by NGS; type: cell-based, human; settings: for % A-to-I editing (IFNα): IFNα 6000 U/ml for 48 hours; for % A-to-I editing (Basal): no treatment
Excerpt: (§1) FIGS. 12A-12D. A-to-I PepTile screen. (A) Composition of A-to-I PepTile linrary screen, and schematic description of the lentiviral expression vector. (B) Experimental workflow. A375 cells were transduced at low MOI, and then treated or not with IFNα for 48 hrs. RNA was extracted and Peptide_ADARreporter RNA species were amplified and sequenced by NGS. (C) Dot plot of A-to-I PepTile library effect on A-to-I editing with or without IFNα treatment. Red line is the mean A-to-I editing of all the 8088 peptides (>100 read counts) no treatment: 25.75% IFNα: 37.6%. (D) Dot plot of A-to-I PepTile library fitness effect upon IFNα for 48 hrs.
FIGS. 17A-17F show A-to-I RNA Editing PiTile (REPTILE) screen in A375. (A) A-to-I RNA Editing PiTile (REPTILE) library design consist of fragmentation of all known ADAR1, ADAR2 interactors and all human double stranded RNA-binding protein into 40 amino acid long peptide. This library was then cloned into a lentivirus vector that also encode a DNA-encoded RNA loop reporter (A-to-I Rep) that is edited by ADAR proteins in cells at the RNA level. When the construct is expressed, the RNA loop gets edited on a single Adenosine, while the 40-mer peptide get expressed at the protein level. Then we can measure the impact of the peptide expression on the editing rate of the RNA loop reporter by sequencing (NGS and Sanger). (B) Experimental workflow of REPTILE screen in A375 cell line. Cells were transduced with the REPTILE library, and then treated for 48 hours with IFNα. Following the treatment, RNA was harvested, converted into cDNA and amplicon library containing peptide Identity (barcode) linked to the RNA loop reporter were prepared for NGS. (C) Result of the A375 REPTILE screen in the no treatment condition. Each dot represents a unique peptide that is associated with an A-to-I editing rate that was measured on the RNA loop. (D) Result of the A375 REPTILE screen in the IFNα condition. Each dot represents a unique peptide that is associated with an A-to-I editing rate that was measured on the RNA loop. Red line represent the A-to-I editing mean, Dash blue line represent 2 times the standard deviation of the % A-to-I editing across all the datasets. This cutoff was used to defined peptides hits that modulate RNA A-to-I editing. (E) Peptide A-to-I Inhibitor Hits intersection between no treatment (% A-to-I editing<15%) and IFNα (% A-to-I editing<27%) conditions. (F) Peptide A-to-I Enhancers Hits intersection between no treatment (% A-to-I editing>36%) and IFNα (% A-to-I editing>47%) conditions.
Provided herein is a screening methodology to measure the effect of small peptide on A-to-I RNA editing in situ and screen thousands of peptides in a single experiment. First, a library of peptides with the potential of impairing A-to-I editing was designed and built. ADAR enzymes edit RNA only on double-stranded RNA structures and via ADAR's double stranded RNA-Binding Domain (dsRBD). […] The A-to-I PepTile library is composed of 19 Human proteins having dsRBD and 34 known protein-protein interactors of ADAR1/2. All these proteins were tiled into 40-mer peptides every 4 amino acids (FIG. 12A). To measure A-to-I editing, a biosensor consisting of a 71 bp dsRNA hairpin structure that gets A-to-I edited at a rate of 25% in A375 melanoma cells, and ~37% upon IFNα treatment was used. This A-to-I editing reporter is fused with DNA sequence encoding for a peptide from the A-to-I PepTile library. The A-to-I PepTile plasmid pool (10304 elements) was used to produced lentiviruses and transduced A375 cells at a low multiplicity of infection (MOI) (FIG. 12B). A part of the infected cells was treated with IFNα at 6000 U/ml for 48 hours, and then bulk RNA of the basal and treated condition was harvested. RNA was then retrotranscribed into cDNA and sequenced by Next-Generation Sequencing (NGS). […]

A375 cells = experiment: A-to-I PepTile screen: fitness effect upon IFNα (PepTile abundance untreated vs treated); type: cell-based, human; settings: IFNα 6000 U/ml for 48 hours vs untreated
Excerpt: as §1
Provided herein is a screening methodology to measure the effect of small peptide on A-to-I RNA editing in situ and screen thousands of peptides in a single experiment. First, a library of peptides with the potential of impairing A-to-I editing was designed and built. ADAR enzymes edit RNA only on double-stranded RNA structures and via ADAR's double stranded RNA-Binding Domain (dsRBD). […] The A-to-I PepTile library is composed of 19 Human proteins having dsRBD and 34 known protein-protein interactors of ADAR1/2. All these proteins were tiled into 40-mer peptides every 4 amino acids (FIG. 12A). To measure A-to-I editing, a biosensor consisting of a 71 bp dsRNA hairpin structure that gets A-to-I edited at a rate of 25% in A375 melanoma cells, and ~37% upon IFNα treatment was used. This A-to-I editing reporter is fused with DNA sequence encoding for a peptide from the A-to-I PepTile library. The A-to-I PepTile plasmid pool (10304 elements) was used to produced lentiviruses and transduced A375 cells at a low multiplicity of infection (MOI) (FIG. 12B). A part of the infected cells was treated with IFNα at 6000 U/ml for 48 hours, and then bulk RNA of the basal and treated condition was harvested. RNA was then retrotranscribed into cDNA and sequenced by Next-Generation Sequencing (NGS). With the sequencing data, the A-to-I editing percentage of the RNA reporter for each PepTile is calculated since both elements are encoded on the same transcript. Moreover, with this screen one can also measure the abundance of the PepTiles between the untreated and treated conditions and determine Fitness score associated to every PepTile. To ensure a robust and more accurate A-to-I editing % estimation a cut-off of 100 read counts was set for each PepTile. […] SEQ ID NOs: 2125-2147 are A-to-I peptide inhibitors and SEQ ID NOs: 2148-2210 are A-to-I activators. In addition, 117 PepTiles were identified that either synergize (SEQ ID NOs: 2211-2243) or protect (SEQ ID NOs: 2244-2327) to IFNα-induced cell death (FIG. 12D and Table 5). These PepTiles are potential new therapeutic agents that can modulate the Interferon pathway. They may be beneficial in treating inflammatory conditions and may also enhance the effectiveness of cancer immunotherapy through synergistic effects.

| Sequence | % A-to-I editing (IFNα) [1] | % A-to-I editing (Basal) [1] | Fitness Score IFNα (A375 cells) |
| --- | --- | --- | --- |
| MLEQCNTELKKYSHVNKKALDQFVNFSEQKEKLIKRQEELD [SMC3_243] | 47.01% | 42.74% | -0.61 |
| MLPERLEVNGRESEEENLNKSEISQVFEIALKRNLPVNFEV [STAU1_42] | 18.40% | 11.00% | 0.46 |
| MLRYFDEKELELMLCGMQEIDMSDWQKSTIYRHYTKNSKQI [WWP2_185] | 25.97% | 13.42% | -0.08 |
| MMGGPLPPHLALKAENNSEVGASGYGVPGPTWDRGANLKDY [DHX9_28] | 54.35% | 49.65% | 1.46 |
| MNKSEISLVFEIALKRNMPVSFEVIKESGPPHMKSFVTRVS [STAU2_44] | 23.54% | 6.78% | 0.07 |
| MNMMLFEVVKMGKSAMQSVVDDWIESYKHDRDIALLDLINF [STAG2_21] | 58.92% | 43.58% | 0.65 |
| MPLRGWPLELLCEKSIGTANRPMGAGEALRRVLECLASGIV [ILF3_62] | 55.34% | 39.78% | -0.73 |
| MPVSALHQFAQMQRVQLDLKETVTTGNVMGPYFAFCAVVDG [ADAD1_25] | 25.66% | 14.03% | 0.99 |
| MPYERQQFESVEWYNNRNQDNYVSWSDSEDDDEDEEIEEKE [DICER1_98] | 52.37% | 37.74% | -1.79 |
| MQAHLAMGGGPGPGTDFTSDQADFPDTLFQEFEPPAPRPGL [ADARB2_50] | 51.37% | 40.11% | 0.65 |
| MQPQTTINKEQFSKRKNDTLDPELFVECTECGRKMHQICVL [EP300_306] | 20.81% | 12.58% | -0.25 |
| MQQGTPGMALGSMGSVVKSEASSSPPVVTSSSHSRAPCQAG [SOX2_58] | 53.74% | 41.35% | -0.36 |
| MQVEQMEIPPVELPPEEPPNICQLIPELELLPEKEKEKEKE [RAD21_124] | 48.70% | 39.15% | 1.20 |
| MQVTISVTSPLMREDPSTDPGVEEPQADAGDVLSPKKCLES [ZFR2_183] | 54.85% | 40.13% | -0.70 |
| MRFLYSELMKYNSQTAKDSIFEPAKGGEKLQIKKTVSFHLY [ADAR_231] | 65.21% | 56.37% | 0.14 |
